We go through 6 molecules from ChEMBL document CHEMBL1201862, “PubChem BioAssay data set” (2004).

Assay [1] relates to HEK293. The assay can be described thus: NOD2 signaling inhibitors in MDP-stimulated cells, cell-based, uHTS, luminescence (AID 2001). The assay is classed as functional. The following applies: Homo sapiens.
In assay [2] the target is Nucleotide-binding oligomerization domain-containing protein 2 (Homo sapiens, UniProt Q9HC29). The assay can be described thus: inhibition of NOD2-driven NF-kB reporter – cell-based, luminescence, uHTS, HEK293 (AID 1566). The assay is classed as functional.
The test system of assay [3] is HEK293. Briefly: inhibition of NOD1-driven NF-kB reporter – cell-based, luminescence, uHTS, primary screen (AID 1578). The assay is classed as functional. Conditions: Homo sapiens.
For assay [4], the system named is HEK293. The assay can be described thus: cells. In kind it is functional, cell-based. Conditions: Homo sapiens.
In assay [5] the test system is HEK293. The assay can be described thus: cells. The assay is classed as functional, cell-based. Conditions: Homo sapiens. The source holds these as a separate data set.
The test system of assay [6] is HEK293. The assay can be described thus: cells. The assay is classed as functional, cell-based. The following applies: Homo sapiens. The source holds these as a separate data set.
Assay [7] addresses T1, G-protein coupled receptor 55 (Homo sapiens, UniProt Q9Y2T6). The assay can be described thus: SAR analysis of selective Agonists of GPR55 using an Image-Based Assay. [Related pubchem assays (depositor defined):AID1961, AID1965]. In kind it is functional.
Assay [8] deals with T1, G-protein coupled receptor 55. Briefly: selective activators of receptor GPR55 – imaging, U2OS cells, beta-arrestin-GFP redistribution, primary screen (AID 1961). In kind it is functional.
Assay [9] concerns the target T2, Cannabinoid receptor 2 (Homo sapiens, UniProt P34972). The assay can be described thus: SAR analysis of antagonists of the Cannabinoid Receptor 2 using an Image-Based Assay - Set 2. [Related pubchem assays (depositor defined):AID1961, AID1965]. In kind it is functional.
In assay [10] the target is T2, Cannabinoid receptor 2. The assay can be described thus: SAR analysis of agonists of the Cannabinoid Receptor 2 using an Image-Based Assay - Set 2. [Related pubchem assays (depositor defined):AID1961, AID1965]. In kind it is functional.
Assay [11] addresses Cannabinoid receptor 1 (Homo sapiens, UniProt P21554). Briefly: SAR analysis of antagonists of the Cannabinoid Receptor 1 using an Image-Based Assay. [Related pubchem assays (depositor defined):AID1961, AID1965]. The assay is classed as functional.
In assay [12] the target is T3, Ubiquitin-conjugating enzyme E2 N (Homo sapiens, UniProt P61088).
T3 sequence (P61088 whole entry): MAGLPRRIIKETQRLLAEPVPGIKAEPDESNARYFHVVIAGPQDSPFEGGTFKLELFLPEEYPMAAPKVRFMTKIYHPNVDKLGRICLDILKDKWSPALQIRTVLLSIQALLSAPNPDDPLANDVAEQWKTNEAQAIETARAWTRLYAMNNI
In kind it is functional.

The target in assay [13] is T3, Ubiquitin-conjugating enzyme E2 N. In kind it is functional. The source holds these as a separate data set.
The target of assay [14] is T4, DNA repair protein RAD52 homolog (Homo sapiens, UniProt P43351).
T4 sequence (P43351 whole entry): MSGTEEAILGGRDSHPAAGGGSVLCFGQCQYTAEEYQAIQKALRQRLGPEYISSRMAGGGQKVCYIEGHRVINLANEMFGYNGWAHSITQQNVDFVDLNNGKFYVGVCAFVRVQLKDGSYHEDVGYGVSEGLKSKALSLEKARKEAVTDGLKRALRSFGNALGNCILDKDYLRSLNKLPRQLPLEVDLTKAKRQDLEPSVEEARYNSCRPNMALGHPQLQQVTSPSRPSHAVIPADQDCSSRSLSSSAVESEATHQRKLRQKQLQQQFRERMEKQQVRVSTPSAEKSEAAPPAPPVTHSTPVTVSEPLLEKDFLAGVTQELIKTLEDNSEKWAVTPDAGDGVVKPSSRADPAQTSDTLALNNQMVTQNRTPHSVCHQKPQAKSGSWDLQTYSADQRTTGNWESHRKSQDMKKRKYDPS
In kind it is functional, biochemical.

Assay [15] addresses T5, Bcl-2-related protein A1 (Mus musculus, UniProt Q07440).
T5 sequence (Q07440 whole entry): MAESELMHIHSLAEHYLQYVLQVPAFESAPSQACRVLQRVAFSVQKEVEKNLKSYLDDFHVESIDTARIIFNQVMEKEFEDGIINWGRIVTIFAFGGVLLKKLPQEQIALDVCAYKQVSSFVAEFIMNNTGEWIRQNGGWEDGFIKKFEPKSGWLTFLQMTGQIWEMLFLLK
In kind it is functional.

Assay [16] can be described thus: Counterscreen for AddAB inhibitors: absorbance-based bacterial cell-based high throughput dose response assay for inhibitors of bacterial viability. [Related pubchem assays (depositor defined):AID435030, AID449728, AID449731, AID488942, AID488955, AID488956]. The assay is classed as functional.
Assay [17] has as its target Exodeoxyribonuclease V (Escherichia coli (strain K12), UniProt P04993+P07648+P08394). The assay can be described thus: RecBCD inhibition via phage-restricted bacterial growth – absorbance, V66 E. coli, mutant T4 phage, counter-screen for AddAB inhibitor project, dose response (AID 492957). In kind it is functional, cell-based, Escherichia coli str. K-12 substr. MG1655.

The target in assay [18] is Luciferin 4-monooxygenase (Photinus pyralis, UniProt P08659). The assay can be described thus: inhibition of purified Photinus pyralis luciferase – biochemical, luminescence, dose response (AID 1891).
A short description of assay [19]: Luminescence Cell-Based Dose Confirmation HTS to Identify Inhibitors of Platelet Dense Granule Release. [Related pubchem assays: 1663 (Primary HTS), 1678 (Summary of Project)]. In kind it is functional.
Assay [20] in a line: reduction of Shn3 3'UTR-driven luciferase in osteoblasts – cell-based, Clone20 osteoblasts, firefly luciferase, cherry-picked, dose response (AID 624132).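 Also: firefly luciferase luminescence from reporter carrying the Shn3 3'UTR in osteoblasts.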 The assay is classed as functional.
The nature of assay [21]: non-specific 3'UTR reporter inhibition in Clone20-Shn3RL – cell-based, Renilla luciferase, cherry-picked, counter-screen for Shn3 inhibitor project, dose response (AID 624133). The assay is classed as functional. (In general: The purpose of a counterscreen is to sort out artefacts and off-target activity.)
Assay [22] is described as follows: loss of viability in HepG2 cells – cell-based, CellTiter-Glo, cherry-picked, cytotoxicity control for Shn3 inhibitor project, dose response (AID 624134). In kind it is functional. (In general: ATP-based viability assays read luminescence as a measure of living cells.)
Assay [23] deals with T6, Tyrosine-protein phosphatase non-receptor type 7 (Homo sapiens, UniProt P35236).
T6 sequence (P35236 whole entry): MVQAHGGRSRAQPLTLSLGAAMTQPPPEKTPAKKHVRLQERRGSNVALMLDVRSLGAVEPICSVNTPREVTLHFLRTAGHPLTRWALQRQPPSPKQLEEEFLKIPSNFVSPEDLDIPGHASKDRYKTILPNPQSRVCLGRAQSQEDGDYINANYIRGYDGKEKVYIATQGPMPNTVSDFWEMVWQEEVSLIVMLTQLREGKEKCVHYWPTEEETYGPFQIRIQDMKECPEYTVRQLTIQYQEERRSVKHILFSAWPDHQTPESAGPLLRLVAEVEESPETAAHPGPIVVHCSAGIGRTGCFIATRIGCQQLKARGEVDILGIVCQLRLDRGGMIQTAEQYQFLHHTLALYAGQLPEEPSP
The assay can be described thus: redox-active compounds inhibiting HePTP phosphatase – biochemical, fluorescence, mechanism study (AID 2068). The assay is classed as functional.

The source made the active and inactive calls.

Nucleotide-binding oligomerization domain-containing protein 2, sequence (Q9HC29 whole entry, the tested form may be a part): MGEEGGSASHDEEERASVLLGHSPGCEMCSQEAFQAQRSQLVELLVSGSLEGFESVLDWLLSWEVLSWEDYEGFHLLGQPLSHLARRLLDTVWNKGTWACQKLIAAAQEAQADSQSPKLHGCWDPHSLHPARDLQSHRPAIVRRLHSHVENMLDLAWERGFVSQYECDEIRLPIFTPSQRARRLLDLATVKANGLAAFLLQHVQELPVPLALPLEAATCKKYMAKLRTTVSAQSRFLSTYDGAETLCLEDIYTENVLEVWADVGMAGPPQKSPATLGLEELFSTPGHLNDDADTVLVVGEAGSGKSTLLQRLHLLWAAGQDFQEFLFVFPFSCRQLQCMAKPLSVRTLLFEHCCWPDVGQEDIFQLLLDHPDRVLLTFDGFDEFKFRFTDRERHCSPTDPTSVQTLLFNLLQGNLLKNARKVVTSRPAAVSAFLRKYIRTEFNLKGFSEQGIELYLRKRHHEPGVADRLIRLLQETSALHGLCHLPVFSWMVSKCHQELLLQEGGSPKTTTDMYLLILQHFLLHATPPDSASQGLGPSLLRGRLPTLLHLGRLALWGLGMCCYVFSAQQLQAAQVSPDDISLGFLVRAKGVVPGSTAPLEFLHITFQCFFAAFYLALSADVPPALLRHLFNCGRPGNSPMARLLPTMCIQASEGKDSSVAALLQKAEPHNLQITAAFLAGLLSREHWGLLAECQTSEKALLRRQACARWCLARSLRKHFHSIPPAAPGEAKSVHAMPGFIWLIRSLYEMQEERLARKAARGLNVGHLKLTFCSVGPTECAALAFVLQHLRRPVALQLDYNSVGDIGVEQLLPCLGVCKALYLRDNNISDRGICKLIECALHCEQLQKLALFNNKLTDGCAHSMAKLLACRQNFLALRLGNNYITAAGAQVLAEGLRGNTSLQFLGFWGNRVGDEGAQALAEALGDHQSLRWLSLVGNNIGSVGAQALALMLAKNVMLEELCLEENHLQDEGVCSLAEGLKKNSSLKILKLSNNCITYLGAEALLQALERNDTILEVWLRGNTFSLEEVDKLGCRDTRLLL
T1 sequence (Q9Y2T6 whole entry): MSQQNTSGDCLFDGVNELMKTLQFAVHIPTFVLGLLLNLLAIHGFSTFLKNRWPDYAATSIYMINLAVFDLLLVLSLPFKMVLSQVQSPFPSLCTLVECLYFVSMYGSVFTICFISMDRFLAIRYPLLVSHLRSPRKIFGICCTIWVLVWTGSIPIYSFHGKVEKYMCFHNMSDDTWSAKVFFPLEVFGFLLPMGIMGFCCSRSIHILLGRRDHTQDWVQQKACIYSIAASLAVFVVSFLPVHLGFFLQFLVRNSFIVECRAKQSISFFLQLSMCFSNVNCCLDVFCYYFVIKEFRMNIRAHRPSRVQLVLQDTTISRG
T2 sequence (P34972 whole entry): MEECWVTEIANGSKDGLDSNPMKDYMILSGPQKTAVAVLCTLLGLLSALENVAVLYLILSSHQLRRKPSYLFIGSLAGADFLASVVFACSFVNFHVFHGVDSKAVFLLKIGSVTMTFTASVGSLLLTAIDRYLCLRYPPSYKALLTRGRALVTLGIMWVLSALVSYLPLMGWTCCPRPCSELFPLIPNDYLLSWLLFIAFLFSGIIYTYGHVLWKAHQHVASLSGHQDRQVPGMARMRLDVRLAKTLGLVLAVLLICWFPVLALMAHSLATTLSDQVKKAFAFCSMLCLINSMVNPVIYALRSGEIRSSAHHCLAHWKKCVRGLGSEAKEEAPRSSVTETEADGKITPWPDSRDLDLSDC
Luciferin 4-monooxygenase, sequence (P08659 whole entry): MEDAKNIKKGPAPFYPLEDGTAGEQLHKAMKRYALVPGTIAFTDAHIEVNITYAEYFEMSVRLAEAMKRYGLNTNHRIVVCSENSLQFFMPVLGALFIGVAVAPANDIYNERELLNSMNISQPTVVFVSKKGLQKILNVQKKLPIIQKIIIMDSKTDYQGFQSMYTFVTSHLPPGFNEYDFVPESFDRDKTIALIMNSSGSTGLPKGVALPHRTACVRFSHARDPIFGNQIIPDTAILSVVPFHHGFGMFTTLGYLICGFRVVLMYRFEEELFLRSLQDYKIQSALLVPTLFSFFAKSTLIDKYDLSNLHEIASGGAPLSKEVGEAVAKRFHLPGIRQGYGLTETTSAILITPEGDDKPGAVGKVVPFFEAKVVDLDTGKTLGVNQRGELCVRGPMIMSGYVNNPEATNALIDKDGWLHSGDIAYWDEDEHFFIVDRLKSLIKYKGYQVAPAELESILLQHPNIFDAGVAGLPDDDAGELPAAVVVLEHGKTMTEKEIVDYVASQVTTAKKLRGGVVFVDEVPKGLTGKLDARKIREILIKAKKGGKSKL
Cannabinoid receptor 1, sequence (P21554 whole entry): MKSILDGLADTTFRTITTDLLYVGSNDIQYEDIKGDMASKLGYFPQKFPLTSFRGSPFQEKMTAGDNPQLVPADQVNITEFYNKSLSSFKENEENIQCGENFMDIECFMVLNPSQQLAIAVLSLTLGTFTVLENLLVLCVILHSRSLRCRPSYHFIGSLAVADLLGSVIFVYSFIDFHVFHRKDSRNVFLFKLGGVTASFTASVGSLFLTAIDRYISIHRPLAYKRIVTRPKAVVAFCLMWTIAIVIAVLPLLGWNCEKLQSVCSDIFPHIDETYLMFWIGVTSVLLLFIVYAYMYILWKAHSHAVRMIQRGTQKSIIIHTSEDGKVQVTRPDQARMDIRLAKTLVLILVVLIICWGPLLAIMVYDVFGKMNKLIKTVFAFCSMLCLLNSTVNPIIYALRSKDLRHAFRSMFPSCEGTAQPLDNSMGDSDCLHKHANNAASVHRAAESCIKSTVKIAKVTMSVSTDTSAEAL

Regarding `COc1ccc(CCNc2oc(COc3ccccc3Cl)nc2C#N)cc1OC`, the IC50 in assay [1] is 8.33 µM (active); in [4], 11.1 µM (active); in assay [5], 8.53 µM (active); in [6], > 20 µM (inactive). Moreover, the EC50 in assay [2] was 16 µM (active); in [3] it was 14 µM (active).
As for `O=C(CSc1nc2ccccc2s1)N1c2ccccc2Sc2ccc(C(F)(F)F)cc21`, the EC50 in [7] was 1.17 µM (active); in assay [8], 1 µM (active); in [10], < 0.062 µM (active). Further, the IC50 in [9] and in assay [11] was > 32 µM (inactive) in each case.
`N[C@@H](CO)c1cn([C@@H](Cc2cc3ccccc3[nH]2)C(=O)N2CCNCC2)nn1`: the IC50 in assay [12] was 10.9 µM (active); in assay [13], 12.3 µM (active); in [15], > 20 µM (inactive). In addition, the AC50 in [14] is 3.52 µM (active).
As to `COc1ccc(OCC(O)CNc2ccc(Br)cc2)cc1` (centres undefined), the IC50 in assay [16] and in assay [17] was > 119 µM (inactive) throughout.
For the molecule `CCC1CCCCN1S(=O)(=O)c1ccc(NC(=O)c2ccncc2)cc1` (centres undefined), the IC50 is 11.7 µM (inactive) in assay [1], 19.3 µM (active) in assay [4], 8.23 µM (active) in assay [5] and > 20 µM (inactive) in assay [6]. Also, the EC50 was > 112 µM (not active) in [18], > 20 µM (inactive) in assay [2], > 112 µM (not active) in assay [19] and 5.51 µM (active) in assay [3]. Moreover, the AC50 in [20] was 3.43 µM (active); in [21], 16.5 µM (active); in [22] it was 4.88 µM (active).
For `O=C(NCc1ccccc1)Nc1ccc2nc(-c3ccco3)c(-c3ccco3)nc2c1`, the half-maximal inhibitory concentration (IC50) in [23] is 1.54 µM (active).

One may read the IC50 as the point on the concentration scale where inhibition reaches its midpoint. By EC50 is commonly meant the concentration giving half of the maximal effect. The AC50 is the concentration at which the activity in the assay is half-maximal.
